Laboratory results taken from patent publication US11872224B2, “Amorphous solid dispersion formulation” (TaiGen Biotechnology Co., Ltd., priority 2020, dated 2024).
In brackets after ≈: the same amount, converted by molar mass.

Experiment: Dissolution assessment: solubility in FaSSIF
Format: physicochemical
Conditions: FaSSIF pH 6.5, 37° C., 600 rpm, target concentration 1.0 mg/mL
Method: An amount of Compound A (about 6 mg) and an amorphous solid dispersion (equivalent to around 6 mg Compound A) were weighed into separate 8 ml bottle, and 6 ml FaSSIF (Fasted state simulated intestinal fluid) was added (target concentration 1.0 mg/mL). The suspensions were stirred using a thermomixer at 37° C. under 600 rpm and 200 μL of suspensions were withdrawn at pre-set time intervals (such as 5 min) and then centrifuged at 14000 rpm for 4 min. Then, 100 μL of supernatant was diluted with 500 μL ACN (Acetonitrile) to prevent precipitation, and was analyzed by HPLC.
FaSSIF was prepared by following steps: 1) Place 0.1024 g sodium hydroxide, 0.7518 g sodium dihydrogen phosphate anhydrous and 1.5470 g sodium chloride in a 250 mL volumetric flask, add about 225 mL water, and adjust the pH to 6.5 with 1 N sodium hydroxide or 1N hydrochloric acid. Make up to volume (250 mL) with pure water. 2) Place and dissolve 0.4480 g SIF Powder Original with 100 mL of buffer (from step 1) in a 200 mL volumetric flask, add water to volume and mix well.

SMILES: COC(=O)OCOc1c2n(ccc1=O)N([C@H]1c3ccccc3CSc3c1ccc(F)c3F)CC1(CC1)C2=O [Sample 1, [1-((11S)-7,8-difluoro(6H,11H-dibenzo[c,f]thiepin-11-yl))-4,6-dioxospiro[1,2,3,9-tetrahydropyridino[1,2-e]pyridazine-3,1′-cyclopropane]-5-yloxy]methyl methoxyformate]
- Solubility 5 min (5 min): 4.95 µg/mL (≈ 9.16 µM)
- Solubility 15 min (15 min): 4.89 µg/mL (≈ 9.05 µM)
